The test system of assay [1] is pathological blood-brain barrier (bEnd.3 cells co-incubated with U87 MG glioma cells). The assay is described as follows: Pathological blood-brain barrier Transwell model (bEnd.3 co-incubated with U87 MG), cell transmembrane resistance. The class given is cell-based. Particulars: 24 hours.
Procedure: A Transwell model of co-incubation of brain microvascular endothelial cells bEnd.3 and glioma cells U87 MG simulates a pathological blood-brain barrier. Axitinib at different concentrations (0, 0.05 μg/mL, 0.1 μg/mL, 0.5 g/mL, 1 μg/mL, 4 μg/mL, 5 μg/mL, 10 μg/mL, 20 μg/mL) was allowed to act on the Transwell chamber. After 24 hours, cell transmembrane resistances were detected by a cell resistance meter. A physiological blood-brain barrier simulated by a Transwell model of brain microvascular endothelial cell bEnd.3 was used as a positive control (n=5).
A Transwell model of co-incubation of brain microvascular endothelial cells bEnd.3 and glioma cells U87 MG simulates a pathological blood-brain barrier. Axitinib (10 μM), an Axitinib analog of phosphatidylinositol kinase (PI3K) inhibitor LY294002 (10 μM), protein kinase B (AKT) agonist SC79 (10 μM) were added into the Transwell chamber. After 24 hours, cell transmembrane resistance was detected by a cell resistance meter. A physiological blood-brain barrier simulated by a Transwell model of brain microvascular endothelial cell bEnd.3 was used as a positive control (n=5).
U87 MG glioma cells were used as brain tumor model cells. 1.5 mL suspension of well-grown U87 MG cell suspension was inoculated in a 12-well plate at a cell density of 2×10^5/well. Incubation was continued at 37° C. and 5% CO2 until the cells adhere. Then, the physiological blood-brain barrier as constructed by Method 1 in the Example 1, i.e., the Transwell chamber with bEnd.3 cells grown, was transferred to the 12-well plate with U87 MG cells grown. Co-culture was further continued for 24 hours to obtain a cell model of pathological blood-brain barrier.
The physiological blood-brain barrier as constructed by Method 2 in the Example 1 was used as a model. Axitinib at different concentrations was added to the Transwell chamber for stimulation.
The physiological blood-brain barrier and the pathological blood-brain barrier as constructed in Method 1 and Method 2 in the Example 1 were used as models, respectively. Axitinib (10 μM), an Axitinib analog of phosphatidylinositol kinase (PI3K) inhibitor LY294002 (10 μM), protein kinase B (AKT) agonist SC79 (10 μM) were added into the Transwell chamber of the pathological blood-brain barrier model as constructed in Method 2 in the Example 1. After 24 hours, the Transwell chamber with bEnd.3 cells grown was transferred to another 12-well plate, washed with PBS for 3 times, and 0.5 mL HBSS nutrient solution was added to the chamber, and the outer chamber was supplemented with 1.5 mL HBSS nutrient solution. The cells were equilibrated at 37° C. for 15 minutes. Cell transmembrane resistance was detected by a cell resistance meter.
The test system of assay [2] is pathological blood-brain barrier (bEnd.3 cells with tumor cell culture). The assay is described as follows: Tumor cell culture co-incubated with bEnd.3 cells (U87MG removed), FITC-dextran transmembrane transport. The class given is cell-based. Particulars: tumor cell culture kept, 10 μM, 24 hours, FIG. 16. As for the experimental part:
FIG. 16: Co-incubation of a tumor cell culture and bEnd.3 cells in vitro, and FITC-dextran transmembrane transport efficiency. A Transwell model of co-incubation of brain microvascular endothelial cells bEnd.3 and glioma cells U87 MG simulates a pathological blood-brain barrier. Once a pathological blood-brain barrier model was formed, U87MG glioma cells in the outer chamber of Transwell were removed, while the tumor cell cultures were remained. Axitinib (10 μM) and an Axitinib analog of phosphatidylinositol kinase (PI3K) inhibitor LY294002 (10 μM) were added to the Transwell chamber. After 24 hours, the Transwell chamber and the outer chamber were cleaned with PBS, and a FITC-dextran solution in HBSS was added to the Transwell chamber, and was allowed to act for 4 hours. The result as shown in the figure was the FITC-dextran concentration of the Transwell outer chamber as detected by a fluorescence spectrophotometer. […]
The physiological blood-brain barrier and the pathological blood-brain barrier as constructed in Method 1 and Method 2 in the Example 1 were used as models, respectively. […] After the cells were incubated at 37° C. in the dark for 4 hours, concentration of FITC-dextran transferred to the outer chamber via the Transwell chamber was detected with a fluorescence spectrophotometer.

A further assay has as its system Claudin-5/Occludin. As to the kind of experiment: Tumor cell culture co-incubated with bEnd.3 cells (U87MG removed), Claudin-5/Occludin immunofluorescence. The class given is cell-based. Particulars: tumor cell culture kept, 10 μM, 24 hours, FIG. 17. As for the experimental part:
FIG. 17: Co-incubation of a tumor cell culture and bEnd.3 cells in vitro, and immunofluorescent staining of a blood-brain barrier tight junction protein of Claudin-5/Occludin. A Transwell model of co-incubation of brain microvascular endothelial cells bEnd.3 and glioma cells U87 MG simulates a pathological blood-brain barrier. Once a pathological blood-brain barrier model was formed, U87MG glioma cells in the outer chamber of Transwell were removed, while the tumor cell cultures were remained. Axitinib (10 μM) and an Axitinib analog of phosphatidylinositol kinase (PI3K) inhibitor LY294002 (10 μM) were added to the Transwell chamber. After 24 hours, immunofluorescent staining was performed on bEnd.3 cells on the Transwell chamber membrane. A physiological blood-brain barrier simulated by a Transwell model of brain microvascular endothelial cell bEnd.3 was used as a positive control.
The physiological blood-brain barrier and the pathological blood-brain barrier as constructed in Method 1 and Method 2 in the Example 1 were used as models, respectively. Once a pathological blood-brain barrier model was formed, U87MG glioma cells in the outer chamber of Transwell were removed, while the tumor cell cultures were remained. Axitinib (10 μM) and an Axitinib analog of phosphatidylinositol kinase (PI3K) inhibitor LY294002 (10 μM) were added to the Transwell chamber. […]

Assay [3] relates to pathological blood-brain barrier. As to the kind of experiment: Evans blue permeation into the brain, in situ glioma model. Particulars: glioma nude mice, 10 mg/kg tail vein, Evans blue after 24 hours; vs tumor-bearing control; FIGS. 18 and 19. The class given is in vivo, BABL/c nude mice.
Procedure: After 24 hours, an Evans blue solution was injected into tail veins at an administration dose of 5 mg/kg.
After 24 hours, an Evans blue solution was injected into tail veins at an administration dose of 5 mg/kg. […] The Evans blue was extracted from the brain tissue with an organic solvent of N,N-dimethylformamide. The result as shown in the figure is the amount of Evans blue permeated into the brain as quantitatively detected by ultraviolet spectrophotometry (n=3).
Male BABL/c nude mice (20±2 g) were used as the model animals. U87-luci glioma cells expressing luciferase were inoculated in the striatum area of nude mice at a concentration of 5×10^5 cells/5 μL by means of a brain stereotaxic instrument (inoculation coordinates, 0.8 mm on the anterior side of bregma, 2 mm on the right side, and 3 mm in depth), to construct an in situ glioma model. […] After 24 hours, an Evans blue solution was injected into tail veins at an administration dose of 5 mg/kg. […] The distribution intensity of Evans blue in the brain tissue was qualitatively observed with a small animal live imaging instrument. The Evans blue was extracted from the brain tissue with an organic solvent of N,N-dimethylformamide. The amount of Evans blue permeated into the brain was quantitatively detected by ultraviolet spectrophotometry.
Another assay has as its system U87-luci glioma. The assay is described as follows: Glioma growth (bioluminescent imaging) and life cycle, in situ glioma model. The class given is in vivo, BABL/c nude mice. Particulars: 10 mg/kg tail vein.
For assay [4], the system named is model of Parkinson's disease. The assay is described as follows: Movement time within 2 minutes, model of Parkinson's disease. The class given is in vivo, C57/BL6 mice. Particulars: FIG. 28. As for the experimental part: After the treatment was accomplished, movement time within 2 minutes (walking, lifting of both forelimbs, washing face, hair grooming and the like) was recorded for each of the test groups (n=5).
After the Axitinib treatment and the levodopa treatment was accomplished, movement time within 2 minutes (walking, lifting of both forelimbs, washing face, hair grooming and the like) was recorded for each of the test groups.

Procedure for U87-luci glioma: Administration was performed for 7 consecutive days. Growth of glioma was monitored by a bioluminescent imaging technology. […] A physiological saline group was used as control.
Male BABL/c nude mice (20±2 g) were used as the model animals. U87-luci glioma cells expressing luciferase were inoculated in the striatum area of nude mice at a concentration of 5×10^5 cells/5 μL by means of a brain stereotaxic instrument (inoculation coordinates, 0.8 mm on the anterior side of bregma, 2 mm on the right side, and 3 mm in depth), to construct an in situ glioma model. […] Administration was performed for 7 consecutive days. Growth of glioma was monitored by a bioluminescent imaging technology.

With `CNC(=O)c1ccccc1Sc1ccc2c(/C=C/c3ccccn3)n[nH]c2c1` [Axitinib, N-methyl-2-((3-((1E)-2-(pyridine-2-yl)ethenyl)-1H-indazol-6-yl)sulfanyl)benzamide], the “Cell transmembrane resistance (blood-brain barrier function)” value in assay [1] (10 μM, FIG. 10) is given as “promote recovery of a blood-brain barrier function from a pathologically impaired state to a state close to a physiological barrier”. Moreover, the “Concentration at which blood-brain barrier permeability is effectively reduced (cell transmembrane resistance)” value in assay [1] (FIG. 9) was 0.5˜20 μg/mL; in assay [1] (FIG. 9, same range in μM), 1.29 to 51.75 µM. In addition, the “Cell transmembrane resistance, dependence on concentration” value in assay [1] (Axitinib 0-20 μg/mL, FIG. 9) is listed as “dose-dependent”. For the same compound, the “FITC-dextran transmembrane transport (blood-brain barrier permeability)” value in assay [2] is on record as “blood-brain barrier permeability is reduced”. For the same compound, in the assay on Claudin-5/Occludin, the “Expression of tight junction protein Claudin-5/Occludin” value is reported as “the degree to which pathological blood-brain barrier tight junction protein of Claudin-5/Occludin is down-regulated is reduced”. The “Amount of Evans blue permeated into the brain” value in assay [3] is listed as “the amount of Evans blue permeated into the brain is reduced”. Moreover, the “Growth of glioma in situ” value in the assay on U87-luci glioma (7 consecutive days from Day 4, vs saline control, FIG. 20) is given as “significantly inhibited”. In addition, the “Life cycle of the animal” value in the assay on U87-luci glioma (7 consecutive days, FIG. 21) is given as “significantly prolonged”. Also, the “Dyskinesia (movement time), Axitinib compared with levodopa” value in assay [4] (Axitinib 10 mg/kg 7 days vs levodopa 20 mg/kg 10 days) is recorded as “no difference in their efficacy”. Moreover, the “Dyskinesia (movement time within 2 minutes)” value in assay [4] (Axitinib 10 mg/kg 7 days, levodopa 20 mg/kg 10 days, vs Parkinson's control) is listed as “significantly alleviated”.

The record behind these values is patent publication US12419875B2, “Use of Axitinib and analogs thereof in preparing blood-brain barrier permeability regulator” (ZHEJIANG UNIVERSITY, priority 2018, dated 2025).
